For assay [1] the following is noted: 2.67 g/day for 14 days, patients with a herniated disc; cited from earlier work.
Assay [2] has as its system cell lines from hepatocarcinomas. To be noted: in vitro, 10 μm to 1 mM; cited from earlier work.
For assay [3] the following is noted: animals injected with 0.3 nmol; cited from earlier work.
Assay [4] relates to Lewis lung carcinoma (3LL). The assay is described as follows: Pulmonary metastatic invasion. The assay is classed as in vivo, male C57BL/6 mice. To be noted: for additional benefit in terms of metastatic process: added to the diet depleted of cadaverine, putrescine, spermidine and spermine. Here is the method: Cells from Lewis lung carcinoma (3LL) were obtained from the ECACC (European Collection of Cell Cultures) and grafted by intramuscular injection in the hind paws of male C57BL/6 mice by the method described previously (Hergueux J. et al., Exp. […] The grafted mice are distributed randomly in the cages in groups of 5 individuals. […] The metastatic dissemination is expressed as percentage invasion relative to the total surface area of the lungs. The percentage metastatic invasion was measured in the mice of the ten groups described above, each having received different nutrition.

A further assay concerns the target T1, ODC (Homo sapiens, UniProt P11926).
T1 sequence (P11926 1-461): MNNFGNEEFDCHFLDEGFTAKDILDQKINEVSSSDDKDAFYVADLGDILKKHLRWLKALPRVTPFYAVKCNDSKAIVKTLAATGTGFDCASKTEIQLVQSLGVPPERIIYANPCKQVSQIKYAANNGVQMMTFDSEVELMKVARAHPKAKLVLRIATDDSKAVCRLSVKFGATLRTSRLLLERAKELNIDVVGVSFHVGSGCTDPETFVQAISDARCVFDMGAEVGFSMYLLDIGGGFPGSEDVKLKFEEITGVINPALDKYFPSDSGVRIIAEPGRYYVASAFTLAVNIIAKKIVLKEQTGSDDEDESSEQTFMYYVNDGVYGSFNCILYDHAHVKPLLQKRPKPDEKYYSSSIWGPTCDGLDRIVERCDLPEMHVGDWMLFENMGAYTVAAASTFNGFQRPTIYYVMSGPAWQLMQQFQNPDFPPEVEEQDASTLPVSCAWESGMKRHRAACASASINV
The note with it: renal cells; cited from earlier work.

Assay [5] deals with putrescine, spermidine and spermine. Briefly: Tumour levels of polyamines. The assay is classed as in vivo, male C57BL/6 mice. The note with it: for decrease of the tumour level of putrescine / decrease of the tumour level of spermidine / decrease of the tumour level of spermine: relative to diet containing a normal level of polyamines. As to the method: The level of polyamines is measured in the tumour formed at the site of inoculation of the Lewis carcinoma cells. […] After incubation for at least 16 h at 4° C., the cells are centrifuged for 15 minutes at 3500 rpm at 4° C. The supernatant that contains the polyamines is removed and is used for determination of the polyamines. The polyamines are determined by the method described previously (Seiler N et al., 1996, Cancer Research, 56, 5624-5630). The three principal polyamines present in mammals (putrescine, spermidine and spermine) were determined for the ten groups of mice that had each received different nutrition. The results are illustrated in FIG. 3.

For assay [6] the following is noted: intrathecal injection, diabetic rats; cited from earlier work.
Assay [7] relates to Lewis lung carcinoma (3LL). The assay is described as follows: Tumour growth (tumour volume), Example 1. The assay is classed as in vivo, male C57BL/6 mice. Here is the method: Male C57BL/6 mice, aged 9 weeks and weighing 20 g (Janvier breeding station, Le Genest St Isle, France), are acclimatized for 1 week before the start of the study. Handling of the animals is carried out in accordance with the ethical directives for experiments and according to the recommendations of the European Biomedical Research Association. Cells from Lewis lung carcinoma (3LL) were obtained from the ECACC (European Collection of Cell Cultures) and grafted by intramuscular injection in the hind paws of male C57BL/6 mice by the method described previously (Hergueux J. et al., Exp. […] The grafted mice are distributed randomly in the cages in groups of 5 individuals. The tumour becomes palpable some days after grafting took place. […] Cancer, 1984, 34(2), 277-281).

The test system of a further assay is noradrenaline release. The note with it: intravenous injection, 1 to 100 mg/kg; cited from earlier work.
A short description of the next assay: Weight of the spleen. It is filed as in vivo, male C57BL/6 mice. The text has this: The animals are euthanized, then the spleen is removed from the mice and weighed using a precision balance. In addition to the ten groups of mice that each received a different diet, as described above, an eleventh group of animals was included for this study. These were male C57BL/6 mice having the same basic physiological characteristics as the mice in the other ten groups but that had not received grafts of Lewis carcinoma cells.

Assay [8] has as its system Lewis lung carcinoma (3LL). The assay is described as follows: Tumour growth (tumour volume) in combination with an anticancer drug, Example 2. The assay is classed as in vivo, male C57BL/6 mice. Here is the method: Male C57BL/6 mice, aged 9 weeks and weighing 20 g (Janvier breeding station, Le Genest St Isle, France), are acclimatized for 1 week before the start of the study. Handling of the animals is carried out in accordance with the ethical directives for experiments and according to the recommendations of the European Biomedical Research Association.
After 20 days, the tumour cells are collected and dispersed in PBS, counted and diluted to reach 0.5×10^6 cells/100 μL, before being grafted in the right hind paw of the mice. The grafted mice are distributed randomly in the cages in groups of 5 individuals.
The tumour becomes palpable some days after the grafting took place. The animals are sacrificed 19 days after grafting the tumour cells.
The treatment is set up 6 days after grafting, when the tumour is palpable, and is administered 7 days a week and comprises the intake ad libitum of the normal nutrition or of the test solutes as well as drinking water.
The animal model (C57BL/6 mouse) and the tumour model (Lewis carcinoma) are described above. The mice are grafted with 0.5×10^6 tumour cells, by intramuscular injection in one of the hind paws.

The mark [9] stands for this setting: depleted diet + agmatine 18.4 mg/kg of food.
Setting [10] is: depleted diet + agmatine 184 mg/kg of food.
Setting [11] is: depleted diet + agmatine 1840 mg/kg of food.
Where [12] appears, read: cyclophosphamide (CY) 9 mg·kg^−1·week^−1.
Setting [13] is: cyclophosphamide (CY) 90 mg·kg^−1·week^−1.
Where [14] appears, read: tumour, neomycin based on a diet depleted of cadaverine, putrescine, spermidine and spermine.

We go through four compounds from patent US20150005387A1, “COMPOSITION CONTAINING AGMATINE, AND USES THEREOF IN PREPARING DRUGS OR NEUTRACEUTICAL SUBSTANCES” (priority 2012, published 2015).

`N=C(N)NCCCCN.O=S(=O)(O)O` [agmatine sulphate]: the perception of pain entry in [1] is recorded as “attenuated perception of pain”.

For `N=C(N)NCCCCN` [agmatine], the cell cycle result in assay [2] is listed as “stopping of the cancer cells in phase G2/M of the cell cycle”. Moreover, the “perception of pain (allodynia)” value in assay [3] is “anti-allodynic effect”. In [4], the “additional benefit in terms of metastatic process” value is recorded as “does not appear to bring any additional benefit”. The “inhibition of ODC / synthesis of polyamines” value on ODC is on record as “dose-dependent inhibition of ODC”. Moreover, the figures for the “decrease of the tumour level of putrescine” value in [5] (setting [9]), in assay [5] (setting [10]) and in assay [5] (setting [11]) were 35%, 14% and 50%, respectively. Further, the “decrease of the tumour level of spermidine” value in assay [5] (setting [9]) is 10%; in [5] (setting [10]), 12%; in assay [5] (setting [11]), 10%. Also, the “decrease of the tumour level of spermine” value in [5] (setting [9]) came out at 31%; in [5] (setting [10]), 24%; in [5] (setting [11]), 16%. The “tactile or thermal allodynia and hyperalgesia” value in [6] is listed as “suppresses tactile or thermal allodynia as well as hyperalgesia”. Further, the “increase of the antitumour effect of the diet depleted of cadaverine, putrescine, spermidine and spermine” value in assay [7] (agmatine 18.4 mg/kg of food) came out at 8%; in assay [7] (agmatine 184 mg/kg of food), 3%; in assay [7] (agmatine 1840 mg/kg of food), 13%. Further, in the assay with noradrenaline release, the blood pressure result is listed as “decrease in blood pressure”. The “additional effect on the weight of the spleen” value in the assay “Weight of the spleen” (agmatine added to the depleted diet, regardless of the dose) is reported as “no additional effect”.

In the case of `O=P1(N(CCCl)CCCl)NCCCO1` (stereo not drawn) [cyclophosphamide], in assay [8] (setting [12]), the “Monitoring of tumour volume (in cm^3) D0” value is given as 0 cm^3, the “Monitoring of tumour volume (in cm^3) D2” value amounted to 0.08 cm^3, the “Monitoring of tumour volume (in cm^3) D5” value was determined as 0.2 cm^3 and the “Monitoring of tumour volume (in cm^3) D8” value came to 0.296 cm^3. For the same compound, in [8] (setting [12]), the “Monitoring of tumour volume (in cm^3) D10” value amounted to 0.64 cm^3, the “Monitoring of tumour volume (in cm^3) D12” value is 1.2 cm^3, the “Monitoring of tumour volume (in cm^3) D15” value is 2.64 cm^3 and the “Monitoring of tumour volume (in cm^3) D18” value is recorded as 3.0 cm^3. In addition, the “Tumour volume on D18 (% relative to UAR)” value in [8] (setting [12]) is recorded as −20%. Also, in [8] (setting [13]), the “Monitoring of tumour volume (in cm^3) D0” value is recorded as 0 cm^3, the “Monitoring of tumour volume (in cm^3) D2” value was 0.02 cm^3, the “Monitoring of tumour volume (in cm^3) D5” value worked out at 0.05 cm^3 and the “Monitoring of tumour volume (in cm^3) D8” value was found to be 0.074 cm^3. In [8] (setting [13]), the “Monitoring of tumour volume (in cm^3) D10” value amounted to 0.16 cm^3, the “Monitoring of tumour volume (in cm^3) D12” value turned out to be 0.3 cm^3, the “Monitoring of tumour volume (in cm^3) D15” value is 0.66 cm^3 and the “Monitoring of tumour volume (in cm^3) D18” value came to 0.7 cm^3. In assay [8] (setting [13]), the “Tumour volume on D18 (% relative to UAR)” value is −81%.

On to neomycin, for which the “mean value of pulmonary metastatic invasion” value in assay [4] (19 days after grafting, no agmatine, neomycin where given 2 mg/ml in drinking water) is recorded as 11%. In addition, the “additional benefit in terms of metastatic process” value in assay [4] is “does not lead to any additional benefit”. Also, the “decrease in metastatic invasion” value in [4] (relative to mice on a diet containing a normal level of polyamines without antibiotic) turned out to be 60%. Moreover, in assay [5] (tumour, based on a normal diet), the “decrease in the level of putrescine” value amounted to 17%, the “effect on the level of spermidine” value was “no effect” and the “increase in the level of spermine” value stood at 7%. Moreover, in assay [5] (setting [14]), the “decrease in the level of spermine” value came out at 5%, the “increase in the level of putrescine” value came to 17% and the “increase in the level of spermidine” value was 24%. Besides, the “evolution of tumour volume” value in [7] (neomycin 2 mg/ml in drinking water, diet containing a normal level of polyamines) is recorded as “no effect”. The “mean value of the weight of the spleen” value in “Weight of the spleen” (grafted mice, 19 days after grafting, no agmatine, neomycin where given 2 mg/ml in drinking water) amounted to 151 mg. The “effect of neomycin on the weight of the spleen” value in “Weight of the spleen” (groups 2, 4 and 6 (normal diet; depleted diet; depleted diet + agmatine 18.4 mg/kg of food)) is given as “decrease in the weight of the spleen”. Besides, the “effect of neomycin on the weight of the spleen” value in “Weight of the spleen” (groups 8 and 10 (depleted diet + agmatine 184 and 1840 mg/kg of food)) is given as “increase in the weight of the spleen”.
